Each structure is given as a SMILES string.

For one experiment, the system named is PPAR-γ. In words: PPAR-γ transactivation (PPRE-LUC) in HEK-293 cells co-transfected with ER-β. The format is cell-based. The method, then: FIG. 12 depicts the effect of ER-β ligand on PPAR-γ function through ligand binding domain (LBD). (A). HEK-293 cells were transfected with 0.25 μg PPRE-LUC, 5 ng CMV-renilla LUC and the indicated receptors (PPAR-γ and ER-β for the left panel and PPAR-α and ER-β for the right panel). The cells were treated 24 hrs after transfection with the indicated ligands and harvested 48 hrs after transfection and firefly luciferase activity was measured and normalized to renilla luciferase. (B). H475 in ER-β LBD is important for its function. H475 in ER-β LBD was mutated to alanine (A) using a site directed mutagenesis kit. Transactivation assay was performed as described in panel A in HEK-293 cells with a titration of ER-β ligands in wild type (WT) or ER-β H475A. (C). […] The cells were treated 24 hrs after transfection with the indicated ligands and harvested 48 hrs after transfection and firefly luciferase activity was measured and normalized to renilla luciferase. […] The cells were treated 24 hrs after transfection with the indicated ligands and harvested 48 hrs after transfection and firefly luciferase activity was measured and normalized to renilla luciferase. […] The cells were treated 24 hrs after transfection with the indicated ligands and harvested 48 hrs after transfection and firefly luciferase activity was measured and normalized to renilla luciferase. […]

For experiment [1], the target named is ERβ ligand binding domain (Homo sapiens, UniProt Q92731). In words: Competitive [3H]-estradiol binding assay, ER-β (Example 21). How it is done: ER binding affinity was determined via one of the following methods:
Briefly, the incubation mixture was filtered through a high affinity protein binding filter, and washed several times to remove any unbound radioactivity. The filter plate was air dried and sealed on the bottom.
Nonspecific binding was subtracted from total binding to yield specific binding.

The subject of another experiment is SHP promoter. The experiment can be described thus: SHP promoter-luciferase assay in HEK-293 cells. Particulars: transfected with FXR and ER-β. It counts as cell-based. The method, then: FIG. 12 depicts the effect of ER-β ligand on PPAR-γ function through ligand binding domain (LBD). (A). HEK-293 cells were transfected with 0.25 μg PPRE-LUC, 5 ng CMV-renilla LUC and the indicated receptors (PPAR-γ and ER-β for the left panel and PPAR-α and ER-β for the right panel). The cells were treated 24 hrs after transfection with the indicated ligands and harvested 48 hrs after transfection and firefly luciferase activity was measured and normalized to renilla luciferase. (B). H475 in ER-β LBD is important for its function. H475 in ER-β LBD was mutated to alanine (A) using a site directed mutagenesis kit. Transactivation assay was performed as described in panel A in HEK-293 cells with a titration of ER-β ligands in wild type (WT) or ER-β H475A. (C). […] HEK-293 cells were transfected with 0.25 μg PPRE-LUC, 5 ng CMV-renilla LUC and 50 ng of the indicated receptors (PPAR-γ or PPAR-γ and wild type ER-β or PPAR-γ and ER-β H475A). The cells were treated 24 hrs after transfection with the indicated ligands and harvested 48 hrs after transfection and firefly luciferase activity was measured and normalized to renilla luciferase. (D). […] HepG2 cells were transfected with 0.25 μg PPRE-LUC, 5 ng CMV-renilla LUC, 0.5 μg PGC-1 or vector backbone and 100 ng of the indicated receptors (PPAR-γ or PPAR-γ and wild type ER-β or PPAR-γ and ER-β H475A for top panels and PPAR-α or PPAR-α and ER-β for bottom panel). The cells were treated 24 hrs after transfection with the indicated ligands and harvested 48 hrs after transfection and firefly luciferase activity was measured and normalized to renilla luciferase. (E). SHP-1 is an ER-β specific target gene. HEK-293 cells were transfected with 0.25 μg SHP-LUC, 5 ng CMV-renilla LUC and 50 ng of the indicated receptors (FXR and ER-α for the left panel and FXR and ER-β for the right panel). The cells were treated 24 hrs after transfection with the indicated ligands and harvested 48 hrs after transfection and firefly luciferase activity was measured and normalized to renilla luciferase. PPAR—peroxisome proliferator and activated receptor; ER—estrogen receptor; H—histidine; A—alanine; RLU—relative luciferase units; Tro—troglitazone; PGC-1—PPAR-γ coactivator; SHP—small heterodimer partner; FXR—farsenoid X receptor.
Human estrogen receptors (ER-α and ER-β) were cloned from prostate cDNA into a pCR3.1 plasmid vector backbone. PGC-1 was cloned into mammalian two hybrid vector pACT. ER-β H475 was mutated to alanine using site-directed mutagenesis. Sequencing was performed to determine the absence of any non specific mutations. SHP promoter (−572 to +10) (26) was cloned into pGL3 basic LUC reporter vector and human FXR was cloned into pCR3.1. […]

The subject of another experiment is rat aorta rings. The experiment can be described thus: Rat aortic ring relaxation. The conditions noted are these: 10^-6 PE constriction; for EC50: Rattus norvegicus. The text has this:
Experimental protocol. Equipment used in these studies included a 4-tissue bath system with reservoirs and circulators (RadnotiGlass Technology, Monrovia, Calif.), DSI/Ponemah tissue force analyzer 7700 (Valley View, Ohio), and iWorx/CB Sciencesforce transducers FT-302. The 250 g rats were anesthetized with isoflurane to produce deep anesthesia. The chest of the rat was opened, and about 3 cm length of aorta was removed and placed in a Petri dish containing room temperature Krebs salt solution (KSS, in mM: 120 NaCl, 5 KCl, 1.2 MgSO4.7H20, 2.5 CaCl2.2H2O, 1 KH2PO4, 25 NaHCO3, and 11 glucose). Fat and connective tissue were removed from the aorta taking care not to stretch the vessel. The aorta was then divided into 3-mm-wide rings. Triangular wire holders were inserted through the lumen of the vessel and connected to the force transducer and tissue holder rod in the vessel bath.
Analog-to-digital conversions of force waveforms were accomplished with a DSI/Ponemah tissue force analyzer 7700. The converted data were automatically analyzed with Ponemah Physiology-Smooth Muscle software. All data are summarized as means±standard error. Differences between means were assessed by a conventional ANOVA. This was followed by Student's test. P<0.05 was considered to be statistically significant.
The tension on the rings was adjusted to 1.0 g passive force using the tension adjustment dial for each transducer and allowed to equilibrate for 60 min in the bath with a 95% O2-5% CO2 gas mixture. The rings were washed with fresh buffer every 20 min. Passive force was readjusted to 1.0 g as needed during this period. When rings were stable at 1.0 g of passive force, the baseline was calculated.
Phenylephrine (PE) at a final concentration of […] was added to the bath to contract the ring, and force was allowed to stabilize for 10 min. Then acetylcholine (ACH) at a final concentration of 10^−5 M was added to the precontracted rings to test for endothelial integrity […]. After the initial test for vessel viability and endothelial integrity, the rings were washed three times for 10 min with buffer, allowing it to equilibrate to active force stabilized at 1 g.
Cumulative concentration-response curves to NRBAs were created by increasing the NRBAs concentration in the tissue bath by successive addition of appropriate dilutions of stock solutions to achieve final bath concentrations of 300 nM to 0.15 mM NRBAs.
Table 10 summarizes EC50 values and maximal % decrease of the 10^−6 PE constriction of the aortic ring for individual NRBAs tested

For another experiment, the target named is ER-α (Rattus norvegicus (Rat), UniProt P06211). In words: Transient transactivation assay in HEK-293 cells, ER-α and ERE-LUC. The format is cell-based. How it is done: Human estrogen receptors (ER-α and ER-β) were cloned from prostate cDNA into a pCR3.1 plasmid vector backbone. PGC-1 was cloned into mammalian two hybrid vector pACT. ER-β H475 was mutated to alanine using site-directed mutagenesis. Sequencing was performed to determine the absence of any non specific mutations. SHP promoter (−572 to +10) (26) was cloned into pGL3 basic LUC reporter vector and human FXR was cloned into pCR3.1. HEK-293 cells were plated at 100,000 cells per well of a 24 well plate in […] (DMEM)+5% charcoal-stripped fetal bovine serum (csFBS). The cells were transfected using Lipofectamine (Invitrogen, Carlsbad, Calif.) with 0.25 μg ERE-LUC, 0.02 μg CMV-LUC (renilla luciferase) and 12.5 ng of rat ER-α or 25 ng rat ER-β. […] Luciferase assays were performed 48 hrs after transfection.
To determine if the selectivity in ER binding also translated into ER-β-selective activity, transient transactivation assays were performed in HEK-293 cells transfected with plasmids encoding ER-α or ER-β and ERE-LUC. The cells were treated with varying concentrations of the ligands and their EC50 values were determined.

In experiment [2] the target is ER-α ligand binding domain (LBD) (Homo sapiens (Human), UniProt P03372). The experiment can be described thus: Ligand binding assay of 14m and 12u, ER-α (Example 22A).
ER-α ligand binding domain (LBD), sequence (P03372 whole entry, looked up, species assumed, the tested form may be a part): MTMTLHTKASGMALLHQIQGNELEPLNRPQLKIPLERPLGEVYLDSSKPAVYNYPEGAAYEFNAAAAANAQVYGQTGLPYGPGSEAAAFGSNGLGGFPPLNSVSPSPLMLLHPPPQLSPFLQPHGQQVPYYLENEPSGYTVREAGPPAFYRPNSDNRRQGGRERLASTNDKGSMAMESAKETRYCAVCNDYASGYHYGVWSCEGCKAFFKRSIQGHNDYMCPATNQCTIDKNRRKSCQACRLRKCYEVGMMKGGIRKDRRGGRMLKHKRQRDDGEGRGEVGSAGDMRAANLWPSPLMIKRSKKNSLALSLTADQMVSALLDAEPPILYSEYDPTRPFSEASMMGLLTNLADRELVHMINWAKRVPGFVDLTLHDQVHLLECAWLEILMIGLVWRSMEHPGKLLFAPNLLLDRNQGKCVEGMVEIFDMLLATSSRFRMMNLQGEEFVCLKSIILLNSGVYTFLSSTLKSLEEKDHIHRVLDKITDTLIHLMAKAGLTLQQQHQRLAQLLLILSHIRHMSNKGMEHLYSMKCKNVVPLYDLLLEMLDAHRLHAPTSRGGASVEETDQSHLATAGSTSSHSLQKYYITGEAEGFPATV

ERβ ligand binding domain, sequence (Q92731 whole entry, looked up, the tested form may be a part): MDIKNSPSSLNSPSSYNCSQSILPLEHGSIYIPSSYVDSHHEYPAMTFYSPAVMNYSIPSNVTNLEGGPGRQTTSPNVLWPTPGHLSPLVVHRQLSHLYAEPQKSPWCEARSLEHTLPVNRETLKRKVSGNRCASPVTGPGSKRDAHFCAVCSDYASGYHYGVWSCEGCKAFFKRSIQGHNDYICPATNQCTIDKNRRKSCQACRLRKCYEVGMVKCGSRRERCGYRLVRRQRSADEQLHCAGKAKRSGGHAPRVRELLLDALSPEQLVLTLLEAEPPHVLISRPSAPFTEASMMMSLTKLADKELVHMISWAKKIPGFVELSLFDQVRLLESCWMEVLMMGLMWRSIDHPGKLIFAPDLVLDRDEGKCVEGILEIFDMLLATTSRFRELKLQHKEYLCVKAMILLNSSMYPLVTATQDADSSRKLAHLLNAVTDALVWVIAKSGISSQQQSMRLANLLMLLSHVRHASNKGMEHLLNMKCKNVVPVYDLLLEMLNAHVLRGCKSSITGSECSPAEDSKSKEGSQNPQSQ

As for `N#Cc1cn(-c2ccc(O)cc2)c(=O)c2c(O)cc(O)cc12` [14m, 6,8-dihydroxy-2-(4-hydroxyphenyl)-1-oxo-1,2-dihydroisoquinoline-4-carbonitrile], the “Troglitazone-induced PPAR-γ activity” value with PPAR-γ is reported as “partially inhibited”. Moreover, the Ki in experiment [1] (read-out: ER-β binding constant (Ki)) was found to be 7 nM. In addition, in the experiment on SHP promoter, the SHP promoter activity entry is “neither of the ligands activated SHP”. In the experiment on rat aorta rings, the “Mean of Maximal % Decrease of the PE constriction of the aortic ring” value is on record as 94.49% and the EC50 was determined as 7.64 µM. For the same compound, the “Function on ER-α in transactivation” value at ER-α is recorded as “agonists”. The compound further registered a Ki in experiment [2] of 94 nM.
Take `O=c1c2c(O)cc(O)cc2c(Br)cn1-c1ccc(O)cc1` [12u, 4-bromo-6,8-dihydroxy-2-(4-hydroxyphenyl)isoquinolin-1(2H)-one]: the “Troglitazone-induced PPAR-γ activity” value in the experiment with PPAR-γ is “partially inhibited”. In addition, in experiment [1] (read-out: Percent Inhibition of [3H]-Estradiol Binding to ER-β), the inhibition at 0.1 µM was 96.7%. Besides, in the experiment on SHP promoter, the SHP promoter activity result was “neither of the ligands activated SHP”. Moreover, in the experiment with rat aorta rings, the “Mean of Maximal % Decrease of the PE constriction of the aortic ring” value worked out at 50.97% and a half-maximal effect (EC50) was put at 30 µM. Further, the “Function on ER-α in transactivation” value on ER-α is recorded as “agonists”. For the same compound, the affinity in experiment [2] corresponds to a Ki of 40 nM.

These data come from patent US9604931B2, “Nuclear receptor binding agents” (GTx, Inc., priority 2007, dated 2017).
